Measured values: the supplement of paper PMC10307832

Columns and labels:
Test in all cases: relative viability (nuclei count vs DMSO), 5 days (fraction); higher = more cells survive
Doramapimod + Lapatinib = compound: Cc1ccc(-n2nc(C(C)(C)C)cc2NC(=O)Nc2ccc(OCCN3CCOCC3)c3ccccc23)cc1 [Doramapimod] + CS(=O)(=O)CCNCc1ccc(-c2ccc3ncnc(Nc4ccc(OCc5cccc(F)c5)c(Cl)c4)c3c2)o1 [Lapatinib] (partner 2 µM)
Summary of the method: (§1)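 Values are medians from duplicate plates. Each reflects relative viability, defined as the nuclei count of treated wells over that of vehicle wells. Lung cancer cell lines in 1536-well plates were pin-tool dosed one day after seeding with one drug alone or with a fixed anchor-drug dose plus five library-drug doses (not always all listed) in √10 steps, then fixed, stained and imaged at 4× after 5 days.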

Doramapimod + Crizotinib = compound: Cc1ccc(-n2nc(C(C)(C)C)cc2NC(=O)Nc2ccc(OCCN3CCOCC3)c3ccccc23)cc1 [Doramapimod] + C[C@@H](Oc1cc(-c2cnn(C3CCNCC3)c2)cnc1N)c1c(Cl)ccc(F)c1Cl [Crizotinib] (partner 1 µM)
Summary of the method: as §1

RAF265 + Dasatinib = compound: Cn1c(Nc2ccc(C(F)(F)F)cc2)nc2cc(Oc3ccnc(-c4ncc(C(F)(F)F)[nH]4)c3)ccc21 [RAF265] + Cc1nc(Nc2ncc(C(=O)Nc3c(C)cccc3Cl)s2)cc(N2CCN(CCO)CC2)n1 [Dasatinib] (partner 0.075 µM)
Summary of the method: as §1

Cell Line | relative viability (Doramapimod + Lapatinib; first compound 0.02 µM) | relative viability (Doramapimod + Lapatinib; first compound 0.06325 µM) | relative viability (Doramapimod + Lapatinib; first compound 0.2 µM) | relative viability (Doramapimod + Lapatinib; first compound 0.6325 µM) | relative viability (Doramapimod + Lapatinib; first compound 2 µM) | relative viability (Doramapimod + Crizotinib; first compound 0.02 µM) | relative viability (Doramapimod + Crizotinib; first compound 0.06325 µM) | relative viability (Doramapimod + Crizotinib; first compound 0.2 µM) | relative viability (Doramapimod + Crizotinib; first compound 0.6325 µM) | relative viability (Doramapimod + Crizotinib; first compound 2 µM) | relative viability (RAF265 + Dasatinib; first compound 0.01 µM) | relative viability (RAF265 + Dasatinib; first compound 0.03162 µM) | relative viability (RAF265 + Dasatinib; first compound 0.1 µM) | relative viability (RAF265 + Dasatinib; first compound 0.3162 µM) | relative viability (RAF265 + Dasatinib; first compound 1 µM)
NCI-H2170 | 0.298 | 0.285 | 0.259 | 0.316 | 0.259 | 1.12 | 1.2 | 1.09 | 1.22 | 1.14 | 0.663 | 0.474 | 0.539 | 0.241 | 0.432
HCC-366 | 1.08 | 1.08 | 1.14 | 1.03 | 1.03 | 0.612 | 0.513 | 0.487 | 0.451 | 0.398 | 0.724 | 0.627 | 0.664 | 0.583 | 0.511
NCI-H2347 | 0.932 | 0.897 | 0.969 | 0.67 | 0.875 | 0.789 | 0.568 | 0.745 | 0.762 | 0.644 | 0.358 | 0.331 | 0.341 | 0.213 | 0.237
COR-L 105 | 0.368 | 0.385 | 0.37 | 0.336 | 0.367 | 0.849 | 0.915 | 0.798 | 0.897 | 0.75 | 0.311 | 0.319 | 0.258 | 0.159 | 0.158
201T | 1.05 | 1.11 | 0.955 | 1.11 | 0.971 | 1.03 | 1.06 | 0.993 | 1.09 | 1.01 | 0.575 | 0.624 | 0.532 | 0.495 | 0.458
NCI-H2126 | 0.815 | 0.811 | 0.781 | 0.735 | 0.662 | 0.966 | 1.06 | 1.06 | 1.11 | 1.05 | 0.716 | 0.656 | 0.622 | 0.464 | 0.354
LC-2-ad | 0.87 | 1.03 | 1.1 | 1.05 | 0.643 | 0.531 | 0.451 | 0.448 | 0.435 | 0.385 | 0.57 | 0.691 | 0.386 | 0.27 | 0.196
NCI-H2085 | 0.79 | 0.764 | 0.749 | 0.836 | 0.707 | 0.86 | 0.871 | 0.851 | 0.95 | 0.655 | 0.241 | 0.315 | 0.289 | 0.205 | 0.276
NCI-H358 | 0.508 | 0.426 | 0.472 | 0.571 | 0.443 | 0.531 | 0.614 | 0.552 | 0.702 | 0.509 | 0.179 | 0.217 | 0.16 | 0.171 | 0.0873
H3255 | 0.234 | 0.233 | 0.244 | 0.241 | 0.267 | 0.919 | 0.785 | 0.893 | 0.851 | 0.852 | 0.526 | 0.332 | 0.381 | – | 0.319
NCI-H2228 | 1.12 | 0.926 | 1.12 | 0.933 | 1.09 | 0.465 | 0.385 | 0.425 | 0.546 | 0.44 | 0.484 | 0.535 | 0.397 | 0.179 | 0.139
CAL-12T | 0.674 | 0.557 | 0.676 | 0.611 | 0.623 | 0.687 | 0.726 | 0.746 | 0.635 | 0.727 | 0.313 | 0.312 | 0.191 | 0.196 | 0.103
A-427 | 1.03 | 1.17 | 1.09 | – | 1.04 | 0.927 | 0.933 | 0.98 | – | 0.932 | 0.641 | 0.615 | 0.685 | 0.469 | 0.131
HARA | 0.606 | 0.713 | 0.794 | 0.968 | 0.637 | 1.27 | 0.966 | 0.965 | 1.08 | 0.992 | 0.298 | 0.385 | 0.256 | 0.184 | 0.137
NCI-H1793 | 0.514 | 0.89 | 0.515 | 0.678 | 0.82 | – | – | – | – | – | 0.486 | 0.401 | 0.361 | – | 0.227
NCI-H1623 | – | – | – | – | – | – | – | – | – | – | 0.558 | 0.496 | 0.645 | – | 0.313
NCI-H2009 | 0.95 | 0.952 | 1.13 | 0.234 | 0.888 | 1.04 | 1.2 | 1.18 | 1.08 | 0.988 | 0.3 | 0.262 | 0.227 | 0.214 | 0.147
ABC-1 | 1.03 | 1.15 | 1.17 | 1.54 | 1.35 | 1.03 | 1.09 | 0.842 | 0.75 | 1.29 | 0.594 | 0.562 | 0.601 | 0.498 | 0.378
IA-LM | 0.897 | – | 0.841 | 0.763 | 0.669 | 0.856 | – | 0.699 | 0.795 | 0.792 | – | – | – | – | –
NCI-H322M | 0.59 | 0.601 | 0.644 | 0.798 | 0.605 | 0.899 | 0.949 | 1.02 | 1.02 | 0.924 | 0.267 | 0.278 | 0.229 | 0.303 | 0.213
NCI-H1792 | 0.898 | 0.986 | 0.909 | 0.859 | 0.858 | 0.762 | 1.06 | 1.07 | 1.04 | 0.971 | 0.848 | 0.83 | 0.759 | 0.575 | 0.293

Cell Line | relative viability (Doramapimod + Lapatinib; first compound 0.02 µM) | relative viability (Doramapimod + Lapatinib; first compound 0.06325 µM) | relative viability (Doramapimod + Lapatinib; first compound 0.2 µM) | relative viability (Doramapimod + Lapatinib; first compound 0.6325 µM) | relative viability (Doramapimod + Lapatinib; first compound 2 µM) | relative viability (Doramapimod + Crizotinib; first compound 0.02 µM) | relative viability (Doramapimod + Crizotinib; first compound 0.06325 µM) | relative viability (Doramapimod + Crizotinib; first compound 0.2 µM) | relative viability (Doramapimod + Crizotinib; first compound 0.6325 µM) | relative viability (Doramapimod + Crizotinib; first compound 2 µM) | relative viability (RAF265 + Dasatinib; first compound 0.01 µM) | relative viability (RAF265 + Dasatinib; first compound 0.03162 µM) | relative viability (RAF265 + Dasatinib; first compound 0.1 µM) | relative viability (RAF265 + Dasatinib; first compound 0.3162 µM) | relative viability (RAF265 + Dasatinib; first compound 1 µM)
LXF-289 | 0.851 | 0.924 | 0.912 | 0.871 | 0.834 | 0.839 | 0.91 | 0.799 | 0.793 | 0.757 | 0.246 | 0.152 | 0.16 | 0.142 | 0.0862
HCC-827 | 0.2 | 0.272 | 0.17 | 0.352 | 0.201 | 0.95 | 0.869 | 0.949 | 0.841 | 0.666 | 0.277 | 0.259 | 0.422 | – | 0.234
EMC-BAC-2 | 0.918 | 0.935 | 0.871 | 1.01 | 0.715 | 0.716 | 0.758 | 0.792 | 0.771 | 0.699 | 0.318 | 0.256 | 0.196 | 0.224 | 0.0752
NCI-H520 | 0.828 | 0.865 | 0.945 | 0.807 | 0.629 | 0.614 | 0.767 | 0.709 | 0.803 | 0.52 | 0.177 | 0.206 | 0.197 | 0.187 | 0.171
NCI-H1755 | 0.6 | 1.04 | 1.05 | 1.08 | 1.03 | 0.886 | 0.905 | 0.788 | 0.768 | 0.833 | 0.404 | 0.427 | 0.33 | 0.294 | 0.195
NCI-H1993 | 0.792 | 0.728 | 0.774 | 1.03 | 0.877 | 0.739 | 0.788 | 0.907 | 0.919 | 0.775 | 0.618 | 0.497 | 0.545 | 0.619 | 0.528
NCI-H23 | 0.962 | 0.998 | 1.11 | 0.761 | 1.12 | 0.685 | 0.435 | 0.488 | 0.539 | 0.595 | 0.716 | 0.75 | 0.622 | 0.48 | 0.325
NCI-H522 | – | – | – | – | – | – | – | – | – | – | 0.847 | 0.9 | 0.811 | 0.919 | 0.764
NCI-H1437 | 0.805 | 0.905 | 0.837 | 0.898 | 0.723 | 0.897 | 0.943 | 0.868 | 1 | 0.915 | 0.451 | 0.416 | 0.403 | 0.397 | 0.395
NCI-H1299 | 0.991 | 0.952 | 0.956 | 0.972 | 0.925 | 0.963 | 0.945 | 0.936 | 1 | 0.902 | – | – | – | – | –
Calu-6 | 1.06 | 1.13 | 1.17 | 1.19 | 0.985 | 0.823 | 0.815 | 0.865 | 0.866 | 0.745 | – | – | – | – | –
NCI-H1395 | 1.38 | 1.13 | 1.05 | 0.913 | 0.818 | – | – | – | – | – | 0.449 | 0.432 | 0.395 | 0.336 | 0.372
NCI-H1703 | 1.11 | 0.983 | 0.949 | 0.987 | 0.716 | 0.614 | 0.576 | 0.519 | 0.783 | 0.493 | – | – | – | – | –
EBC-1 | 0.255 | 0.198 | 0.17 | 0.209 | 0.197 | 0.161 | 0.196 | 0.162 | 0.184 | 0.188 | – | – | – | – | –
ChaGo-K-1 | – | – | – | – | – | 1.15 | 1.16 | 1.17 | – | 1.11 | 0.64 | 0.644 | 0.515 | 0.42 | 0.497
HCC-44 | 1.1 | 1.05 | 1.07 | 0.837 | 0.963 | 0.884 | 0.856 | 0.755 | 0.771 | 0.772 | – | – | – | – | –
SW 900 | – | – | – | – | – | – | – | – | – | – | 0.595 | 0.548 | 0.552 | 0.297 | 0.272
NCI-H2342 | – | – | – | – | – | – | – | – | – | – | 0.319 | 0.349 | 0.298 | 0.276 | 0.288
A549 | 0.827 | 0.989 | 0.932 | 1.24 | 0.895 | 0.763 | 0.747 | 0.771 | 0.743 | 0.762 | – | – | – | – | –
NCI-H441 | – | – | – | – | – | 0.96 | 0.512 | 0.67 | 0.741 | 0.549 | 0.692 | 0.773 | 0.518 | 0.431 | 0.496
LCLC-103H | – | – | – | – | – | 1.05 | 1.06 | 1.08 | 1.06 | 0.944 | 0.431 | 0.467 | 0.478 | 0.386 | 0.338
